# According to PMC4581192, “Fenarimol, a Pyrimidine-Type Fungicide, Inhibits Brassinosteroid Biosynthesis” (International Journal of Molecular Sciences, 2015):
# Molecular target: T1, CYP90D1 (Arabidopsis thaliana, UniProt Q94IA6)
# T1 construct: DNA fragment encoding CYP90D1 mature protein; expressed from pCold-GST in E. coli, fusion protein cleaved with HRV3C protease
# T1 sequence (Q94IA6 1-491): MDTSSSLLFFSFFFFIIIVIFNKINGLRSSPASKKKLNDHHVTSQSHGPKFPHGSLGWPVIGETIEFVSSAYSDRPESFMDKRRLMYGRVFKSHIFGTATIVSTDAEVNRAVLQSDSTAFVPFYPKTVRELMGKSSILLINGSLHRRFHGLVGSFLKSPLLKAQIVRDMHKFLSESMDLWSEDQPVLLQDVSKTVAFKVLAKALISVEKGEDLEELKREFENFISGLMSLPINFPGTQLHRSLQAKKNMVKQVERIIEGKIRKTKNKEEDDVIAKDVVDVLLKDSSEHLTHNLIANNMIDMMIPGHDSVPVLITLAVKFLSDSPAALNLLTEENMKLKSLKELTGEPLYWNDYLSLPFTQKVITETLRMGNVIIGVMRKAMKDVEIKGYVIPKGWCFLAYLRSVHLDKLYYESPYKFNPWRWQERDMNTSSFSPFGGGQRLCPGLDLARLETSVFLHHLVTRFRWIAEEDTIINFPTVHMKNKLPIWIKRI
# Test: optical difference spectroscopy (type II spectral titration) of purified recombinant CYP90D1
# Format: binding
smiles,measurement,value
"OC(c1ccc(Cl)cc1)(c1cncnc1)c1ccccc1Cl (stereo not shown) [FM, fenarimol]",Kd,790 nM
